What was measured:
Assay type in all cases: functional
Neuron [1] = experiment: Neuroprotective effect against H202-induced Sprague-Dawley rat neuron injury assessed as early apoptic cells by annexin V-propidium iodide staining by flow cytometry (reference value: 3.09% +/- 1.40%)
Neuron [2] = experiment: Neuroprotective effect against H202-induced Sprague-Dawley rat neuron injury assessed as late apoptic cells by annexin V-propidium iodide staining by flow cytometry (Rvb= 2.22%+/-0.70%)
Neuron [3] = experiment: Neuroprotective effect against H202-induced Sprague-Dawley rat neuron injury assessed as necrotic cells by annexin V-propidium iodide staining by flow cytometry (reference value: 1.02% +/-0.4%)
Neuron [4] = experiment: Neuroprotective effect against H202-induced Sprague-Dawley rat neuron injury assessed as viable cells by annexin V-propidium iodide staining by flow cytometry (reference value: 93.66%+/-2.19%)
Neuron [5] = experiment: Neuroprotective effect against H202-induced Sprague-Dawley rat neuron injury assessed as apoptic cells by annexin V-propidium iodide staining by flow cytometry; set-up: concentration or dose not given beside the values
Neuron [6] = experiment: Neuroprotective effect against H202-induced Sprague-Dawley rat neuron injury assessed as cell viability by annexin V-propidium iodide staining by flow cytometry

Row | Compound | Activity (Neuron [1]) | Activity (Neuron [2]) | Activity (Neuron [3]) | Activity (Neuron [4]) | Activity (Neuron [5]) | Activity (Neuron [6])
1 | CC1=CCCC(C)(C)C1/C=C/C(C)(O)c1ccc(C(F)(F)F)cc1 (stereo unspecified) | 72.6% | 22.23% | 0.057% | 5.09% | 72.6% | –
2 | CC1=CCCC(C)(C)C1/C=C/C(C)(O)c1ccc(C(C)(C)C)cc1 (stereo unspecified) | 62.1% | 30.4% | 0.05% | 7.36% | 62.1% | –
3 | COc1ccc(C(C)(O)/C=C/C2C(C)=CCCC2(C)C)cc1OC (stereo unspecified) | 57.36% | 38.5% | 0.065% | 3.9% | 57.36% | –
4 | CC1=CCCC(C)(C)C1/C=C/C(C)(O)c1ccsc1 (stereo unspecified) | 50.9% | 42.09% | 0.025% | 6.8% | 50.9% | –
5 | CSc1ccc(C(C)(O)/C=C/C2C(C)=CCCC2(C)C)cc1 (stereo unspecified) | 50.55% | 15.43% | 0.58% | 33.43% | – | –
6 | COc1ccccc1C(C)(O)/C=C/C1C(C)=CCCC1(C)C (stereo unspecified) | 39.8% | 15.2% | 0.42% | 44.4% | – | –
7 | CCCOc1ccc(C(C)(O)/C=C/C2C(C)=CCCC2(C)C)cc1 (stereo unspecified) | 4.31% | 0.7% | 3% | 91.9% | – | –
8 | CCOc1ccc(C(C)(O)/C=C/C2C(C)=CCCC2(C)C)cc1 (stereo unspecified) | 31.4% | 16.3% | 1.32% | 50.8% | – | –
9 | COc1ccc(C(C)(O)/C=C/C2=C(C)CCCC2(C)C)cc1 (stereo unspecified) | 12.2% | 9.06% | 3.42% | 75.25% | – | 75.25%
10 | COc1cccc(C(C)(O)/C=C/C2=C(C)CCCC2(C)C)c1 (stereo unspecified) | 4.95% | 5.35% | 7.39% | 82.3% | – | –
11 | CC1=CCCC(C)(C)C1/C=C/C(C)(O)c1cc(C)ccc1C (stereo unspecified) | 55.1% | 38.3% | 0.045% | 6.4% | 55.1% | –
12 | COc1ccc(C(C)(O)/C=C/C2C(C)=CCCC2(C)C)cc1 (stereo unspecified) | 41.37% | 19.72% | 1.14% | 37.75% | – | –
13 | CCCCCOc1ccc(C(C)(O)/C=C/C2C(C)=CCCC2(C)C)cc1 (stereo unspecified) | 25.77% | 12.7% | 0.61% | 60.91% | – | –
14 | CSc1ccc(C(C)(O)/C=C/C2=C(C)CCCC2(C)C)cc1 (stereo unspecified) | 30.89% | 2.5% | 0.21% | 66.4% | – | –
15 | CCCCCOc1ccc(C(C)(O)/C=C/C2=C(C)CCCC2(C)C)cc1 (stereo unspecified) | 26.48% | 4.02% | 0.26% | 69.25% | – | –
16 | CCCOc1ccc(C(C)(O)/C=C/C2=C(C)CCCC2(C)C)cc1 (stereo unspecified) | 53.84% | 16.6% | 0.52% | 29% | – | –
17 | CCOc1ccc(C(C)(O)/C=C/C2=C(C)CCCC2(C)C)cc1 (stereo unspecified) | 50.34% | 15.62% | 0.93% | 33.1% | – | –
18 | COc1cccc(C(C)(O)/C=C/C2C(C)=CCCC2(C)C)c1 (stereo unspecified) | 25.02% | 9.4% | 3.89% | 61.7% | – | 61.7%
19 | CC1=CCCC(C)(C)C1/C=C/C(C)(O)c1ccccc1 (stereo unspecified) | 62.9% | 30.47% | 0.05% | 6.5% | 62.9% | –
20 | COc1ccccc1C(C)(O)/C=C/C1=C(C)CCCC1(C)C (stereo unspecified) | 66.1% | 14.5% | 0.32% | 19% | – | –
21 | COc1cc(/C=C/C(=O)CC(=O)/C=C/c2ccc(O)c(OC)c2)ccc1O [CURCUMIN] | 24.15% | 7.3% | 1.89% | 79.9% | – | –
22 | C[C@]12N[C@H](Cc3ccccc31)c1ccccc12.O=C(O)/C=C\C(=O)O [DIZOCILPINE MALEATE] | 14.9% | 1.56% | 1.96% | 82.45% | – | –

Source: ChEMBL document CHEMBL1157877, “Design, synthesis and biological evaluation of new ionone derivatives as potential neuroprotective agents in cerebral ischemia” (2010)
